Measured values: patent US10314883B2, “Compositions and methods for regulating blood pressure” (University of Virginia Patent Foundation, priority 2015, dated 2019)

Assays:
[1] = system: thoracodorsal arteries (TDA); experiment: ATP release from intact TDA (luciferin:luciferase); format: cell-based, mouse; conditions: for effect on phenylephrine-induced ATP release from intact TDAs: phenylephrine 100 μmol/L, ^10Panx1 300 μmol/L, peptides 3 μmol/L
Protocol: Mouse TDAs of equal length were isolated and washed thoroughly to eliminate red blood cells. Vessels were placed in a well of a 96-well plate containing Krebs-HEPES solution supplemented with 1% BSA at 37° C. for 30 minutes to allow for degradation of any ATP released as a result of mechanical stimulation during manipulation of the vessel. For measurements performed on HEK cells: 24 hours after transfection, cells cultured in 24-well plates were cautiously washed twice with warm Krebs-HEPES-BSA and 300 μl of Krebs-HEPES-BSA was added to each well after the last wash as previously described. The plate was then kept in the incubator at 37° C. with 5% CO2 for 30 minutes to allow for degradation of ATP eventually released during the washes.
The ectonucleotidase inhibitor ARL67156 (300 μmol/L) was applied to each well. When indicated, ^10Panx1 (300 μmol/L) or the peptides analog to intracellular regions of Panx1 (3 μmol/L) were added along with the ARL67156. After a 30 minute incubation at 37° C. with the inhibitor(s), phenylephrine (100 μmol/L) or equivalent volume of Krebs-HEPES-BSA was added and the plate was kept at 37° C. After five minutes of phenylephrine stimulation, the media surrounding the TDA or the cells was transferred to an Eppendorf tube and centrifuged for five minutes at 5,000×g to eliminate eventual cell debris. Fifty microliters of the supernatant was transferred to a white-wall 96 well plate and placed in a FluoStar Omega luminometer. The ATP concentration was measured by adding 50 μL of luciferin:luciferase reagent (ATP bioluminescence assay kit HSII; Roche), which was injected into each well and the luminescence was immediately recorded. Data are expressed as a percent increase in ATP concentration compared to unstimulated condition. Each stimulated condition was compared to unstimulated condition performed on the same day, and all experiments were performed on at least 15 wells of HEK cells or three TDAs. Data were analyzed using a Kruskall Wallis test (non-parametric one-way ANOVA) followed by Dunn's post-hoc test.
To determine if the TDA response involved release of ATP, we dissected TDAs from C57Bl/6 mice and measured the accumulation of extracellular ATP in response to various agonists in the medium (FIG. 1E, inset). The TDAs were placed in a well of a 96 well plate in Krebs-HEPES solution and treated with the ectonucleotidase inhibitor ARL67156 for 30 minutes. Next, arteries were treated with a contractile agonist for five minutes and the amount of ATP in the media surrounding the vessel was determined using the ATP bioluminescence assay kit HSII (Roche).

[2] = biological target: T1, Panx1 (Mus musculus, UniProt Q9JIP4); experiment: Whole-cell patch clamp of CBX-sensitive Panx1 current in HEK293 cells cotransfected with mPanx1 and α1DAR; format: cell-based; conditions: phenylephrine 20 μmol/L; for effect on phenylephrine-induced Panx1 current: cells pre-incubated with peptide 40-60 minutes
T1 construct: we progressively substituted amino acids in this region of full-length Panx1 with alanine residues; HA; expressed in transfected cells; host or cells: HEK293T cells, transient co-transfection with alpha1DAR plasmid (Origene, NM_013460, C-terminal Myc-DDK)
Protocol: (§1) Human Embryonic Kidney (HEK) 293T cells were cultured as previously described, and were used until passage 20. For ATP measurements, 50,000 cells/well were seeded in 24 well plates pre-coated with 0.01% poly-L-lysine, and transfected using Lipofectamine 2000 (Invitrogen) according to the manufacturer protocol. Briefly, 0.4 μg of α1DAR and 0.4 μg of Panx1^WT, Panx1^KYP>AAA, Panx1^IVEQ>AAA or Panx1^YLK>AAA plasmids were added to each well along with 2 μl of Lipofectamine 2000. For electrophysiology measurements, 4 μg of α1DAR plasmid, 2 μg of Panx1^WT, Panx1^KYP>AAA, Panx1^IVEQ>AAA or Panx1^YLK>AAA plasmids, and 0.5 μg of GFP plasmid were mixed with 10 μl Lipofectamine 2000 and added to a well of 6-well plate seeded with ˜70% confluent HEK cells. Cells were split the next morning and plated onto a glass coverslip for recording. ATP measurements and whole-cell recordings were performed 24 hours after transfection.
Whole-cell recordings were obtained at room temperature from transiently transfected HEK293T cells using Axopatch 200B amplifier (Molecular Devices) in a bath solution composed of 140 mmol/L NaCl, 3 mmol/L KCl, 2 mmol/L MgCl2, 2 mmol/L CaCl2, 10 mmol/L HEPES and 10 mmol/L glucose (pH 7.3). Patch pipettes (3-5 MΩ) were filled with a Cs-/TEA-based internal solution, as previously described. Ramp voltage commands with 7-s intervals were applied using pCLAMP software and Digidata1322A digitizer (Molecular Devices). Peak whole-cell currents were determined at +80 mV and normalized to cell capacitance. Current mediated by Panx1 was defined by its sensitivity to carbenoxolone (CBX). In this system, no CBX-sensitive current is observed in HEK293T cells without Panx1. Basal current was recorded for approximately two minutes and PE (20 μmol/L) was applied to the bath solution, which was followed by addition of CBX (50 μmol/L). When indicated, cells were pre-incubated with bath solution containing IL2 peptide or its scrambled version at room temperature for 40-60 minutes prior to the experiment. The effect of PE on Panx1 current was quantified relative to CBX-sensitive basal current, and data was expressed as percent increase in CBX-sensitive current. All experiments were performed on 8 to 22 cells for each conditions tested. Data were analyzed using a Kruskall Wallis test (non-parametric one-way ANOVA) followed by Dunn's post-hoc test.
To test if α1AR stimulation triggered opening of the Panx1 channel and the importance of the region represented by the IL2 peptide, we cotransfected mPanx1 and α1DAR into HEK293 cells and monitored whole-cell currents by patch clamp electrophysiology.

[3] = biological target: T1, Panx1; experiment: ATP release from HEK293 cells cotransfected with mPanx1 and α1DAR; format: cell-based; conditions: peptide 3 μmol/L, phenylephrine 100 μmol/L
Protocol: as §1, with “ATP measurements and whole-cell recordings were performed 24 hours after transfection.” left out
The ectonucleotidase inhibitor ARL67156 (300 μmol/L) was applied to each well. […] The ATP concentration was measured by adding 50 μL of luciferin:luciferase reagent (ATP bioluminescence assay kit HSII; Roche), which was injected into each well and the luminescence was immediately recorded. Data are expressed as a percent increase in ATP concentration compared to unstimulated condition. […] Data were analyzed using a Kruskall Wallis test (non-parametric one-way ANOVA) followed by Dunn's post-hoc test.

T1 sequence (Q9JIP4 whole entry): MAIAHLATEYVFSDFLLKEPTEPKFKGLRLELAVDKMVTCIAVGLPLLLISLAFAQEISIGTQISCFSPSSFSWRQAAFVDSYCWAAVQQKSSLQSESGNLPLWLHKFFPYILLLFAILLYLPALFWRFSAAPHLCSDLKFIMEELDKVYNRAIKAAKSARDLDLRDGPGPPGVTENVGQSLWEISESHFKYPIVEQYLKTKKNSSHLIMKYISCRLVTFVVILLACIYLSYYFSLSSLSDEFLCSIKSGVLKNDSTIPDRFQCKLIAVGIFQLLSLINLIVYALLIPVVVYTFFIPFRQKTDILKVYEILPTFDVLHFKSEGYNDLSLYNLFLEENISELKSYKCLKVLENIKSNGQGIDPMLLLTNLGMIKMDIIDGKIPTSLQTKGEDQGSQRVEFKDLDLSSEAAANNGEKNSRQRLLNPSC

Compound	ATP release from intact TDAs in response to agonist ([1]; five minutes of agonist, ARL67156 300 μmol/L)	effect of agonist on Panx1 whole-cell current ([2]; cells expressing both mPanx1 and α1DAR)	effect on phenylephrine-induced ATP release from intact TDAs [1]	effect on phenylephrine-induced ATP release [3]	effect on phenylephrine-induced Panx1 current [2]
CNC[C@H](O)c1cccc(O)c1 [Phenylephrine, phenylephrine]	stimulated ATP release	increased this current			
KYPIVEQYLKYGRKKQRRR [IL2]			significantly decreased	significantly decreased	significantly decreased
scrambled intracellular loop 2 IYLYVEQKPY (SEQ ID NO: 7) linked with a TAT sequence [Scrambled IL2]			no effect	no effect	no effect
